From patent US20230414514A1, “FORMULATION TO DETER ABUSE OF DRUGS BY SMOKING” (Purdue Research Foundation, priority 2022, published 2023)

Test: Thermogravimetric analysis (TGA), thermal stability / decomposition
Assay type: physicochemical
Conditions: as stated in the description, conditions not given
Procedure: Samples of 8.0-18.2 mg were placed in platinum TGA sample pans (CS Ceramic) and heated from room temperature to 700° C. at 20° C./min in a furnace under either inert (nitrogen) or oxidizing (air) atmosphere. The experiments were performed in triplicates (n=3) or quintuplicates (n=5). The data were exported and the TGA curves were analysed using TA Universal Analysis Software (Universal Analysis 2000 Version 4.5A, TA Instruments-Waters LLC, New Castle, DE) to determine onset degradation temperatures (Ton,degradation) and weight percent losses of the materials used in this study over the temperature intervals of interest. The values were averaged and reported as mean±standard deviation.
FIG. 3A and FIG. 3B show the TGA profiles for PLA and PCL respectively. […] The mean Ton,degradation of PLA was 278.8±3.8° C., with the average weight percent loss of 98.6±0.3% (n=3) during the decomposition step. The mean Ton,degradation of PCL was 353.1±1.7° C., and the weight percent loss averaged 97.9±1.1% (n=3).
PLA-PCL MS with a 1:9 polymer ratio lost 12.3±0.8% weight (n=3) during the first decomposition step, and 84.7±0.6% weight (n=3) during the second step. The mean weight percent loss for the PLA-PCL MS with a 5:5 ratio of PLA to PCL was 56.5±0.9% (n=3) and 38.4±1.1% (n=3) during the first and second thermal degradation steps. […]

In the case of COC1=CC=C2[C@H]3Cc4ccc(OC)c5c4[C@@]2(CCN3C)[C@H]1O5 [THB, Thebaine], the thermal decomposition temperature is reported as “about 183 °C”.
